#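 Where inhibition never reached the appropriate level, the endpoint shown equals the highest concentration tested. Otherwise, values were interpolated linearly from a five-concentration, 48-hour dose response in 96-well plates. GI50 is the concentration that inhibits growth by half. TGI: total growth inhibition.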
# Assays:
# Assay in all cases: NCI tumour cell line growth inhibition, 48 h
# [1] = system: NCI/ADR-RES ovarian
# [2] = system: ACHN renal
# [3] = system: RXF 393 renal
# [4] = system: SF-539 CNS
# [5] = system: NCI-H226 lung
# [6] = system: MOLT-4 leukemia
# [7] = system: K-562 leukemia
# [8] = system: CCRF-CEM leukemia
# [9] = system: SW-620 colon
# [10] = system: NCI-H23 lung
# [11] = system: SK-OV-3 ovarian
# [12] = system: HCT-116 colon
# [13] = system: HL-60(TB) leukemia
# [14] = system: HCC-2998 colon
# [15] = system: SK-MEL-5 melanoma
# [16] = system: SR leukemia
# [17] = system: M14 melanoma
# [18] = system: OVCAR-4 ovarian
# [19] = system: RPMI-8226 leukemia
# [20] = system: HCT-15 colon
# [21] = system: CAKI-1 renal
# [22] = system: A498 renal
# [23] = system: IGROV1 ovarian
# [24] = system: EKVX NSCLC
# [25] = system: MDA-N
# [26] = system: OVCAR-5 ovarian
# [27] = system: SF-295 CNS
# [28] = system: HT29 colon
# [29] = system: NCI-H522 lung
# [30] = system: OVCAR-8 ovarian
# [31] = system: T-47D breast
# [32] = system: UACC-257 melanoma
# [33] = system: TK-10 renal
# [34] = system: MDA-MB-231 breast
# [35] = system: 786-0 renal
# [36] = system: SF-268 CNS
# [37] = system: U251 CNS
# [38] = system: MCF7 breast
# [39] = system: UO-31 renal
# [40] = system: KM12 colon
# [41] = system: HS 578T breast
# [42] = system: DU-145 prostate
# [43] = system: LOX IMVI melanoma
# [44] = system: HOP-62 NSCLC
# [45] = system: SK-MEL-2 melanoma
# [46] = system: MDA-MB-435
# [47] = system: OVCAR-3 ovarian
# [48] = system: SK-MEL-28 melanoma
# [49] = system: PC-3 prostate
# [50] = system: NCI-H460 lung
# [51] = system: SNB-75 CNS
# [52] = system: HOP-92 NSCLC
# [53] = system: UACC-62 melanoma
# [54] = system: COLO 205 colon
# [55] = system: BT-549 breast
# [56] = system: A549 NSCLC
# [57] = system: SNB-19 CNS
# [58] = system: SN12C renal
# [59] = system: MALME-3M melanoma
smiles,measurement,setting,value
Cc1cc(S(=O)(=O)/N=C(\[N-]S(=O)(=O)c2ccc(Cl)cc2)[n+]2ccc(N(C)C)cc2)c(S)cc1Cl,TGI,[1],> 100 µM
same,TGI,[2],> 100 µM
same,TGI,[3],> 100 µM
same,TGI,[4],> 100 µM
same,TGI,[5],> 100 µM
same,TGI,[6],96.5 µM
same,TGI,[7],> 100 µM
same,TGI,[8],> 100 µM
same,TGI,[9],> 100 µM
same,TGI,[10],> 100 µM
same,TGI,[11],> 100 µM
same,TGI,[12],44.7 µM
same,TGI,[13],> 100 µM
same,TGI,[14],> 100 µM
same,TGI,[15],> 100 µM
same,TGI,[16],3.13 µM
same,TGI,[17],> 100 µM
same,TGI,[18],> 100 µM
same,TGI,[19],> 100 µM
same,TGI,[20],> 100 µM
same,TGI,[21],> 100 µM
same,TGI,[22],99.2 µM
same,TGI,[23],> 100 µM
same,TGI,[24],> 100 µM
same,TGI,[25],> 100 µM
same,TGI,[26],> 100 µM
same,TGI,[27],> 100 µM
same,TGI,[28],> 100 µM
same,TGI,[29],> 100 µM
same,TGI,[30],> 100 µM
same,TGI,[31],> 100 µM
same,TGI,[32],> 100 µM
same,TGI,[33],> 100 µM
same,TGI,[34],> 100 µM
same,TGI,[35],> 100 µM
same,TGI,[36],> 100 µM
same,TGI,[37],> 100 µM
same,TGI,[38],> 100 µM
same,TGI,[39],> 100 µM
same,TGI,[40],> 100 µM
same,TGI,[41],> 100 µM
same,TGI,[42],> 100 µM
same,TGI,[43],> 100 µM
same,TGI,[44],> 100 µM
same,TGI,[45],> 100 µM
same,TGI,[46],> 100 µM
same,TGI,[47],> 100 µM
same,TGI,[48],> 100 µM
same,TGI,[49],> 100 µM
same,TGI,[50],> 100 µM
CS(=O)(=O)CCNCc1ccc(-c2ccc3ncnc(Nc4ccc(OCc5cccc(F)c5)c(C(F)(F)F)c4)c3c2)o1,GI50,[1],5.54 µM
same,TGI,[1],20.7 µM
same,GI50,[2],4.14 µM
same,TGI,[2],8.67 µM
same,GI50,[3],2.85 µM
same,TGI,[3],6.15 µM
same,GI50,[4],4.59 µM
same,TGI,[4],12.3 µM
same,GI50,[5],3.44 µM
same,TGI,[5],6.75 µM
same,GI50,[6],3.81 µM
same,TGI,[6],11.1 µM
same,GI50,[7],5.07 µM
same,TGI,[7],20 µM
same,GI50,[8],4.8 µM
same,TGI,[8],13.9 µM
same,GI50,[9],4.15 µM
same,TGI,[9],7.93 µM
same,GI50,[10],3.88 µM
same,TGI,[10],8.51 µM
same,GI50,[51],3.52 µM
same,TGI,[51],7.77 µM
same,GI50,[11],3.61 µM
same,TGI,[11],9.86 µM
same,GI50,[52],0.847 µM
same,TGI,[52],6.34 µM
same,GI50,[12],3.94 µM
same,TGI,[12],8.16 µM
same,GI50,[13],5.65 µM
same,TGI,[13],13.4 µM
same,GI50,[14],4.4 µM
same,TGI,[14],8.29 µM
same,GI50,[15],2.84 µM
same,TGI,[15],5.9 µM
same,GI50,[16],6.34 µM
same,TGI,[16],19.4 µM
same,GI50,[17],4.36 µM
same,TGI,[17],8.67 µM
same,GI50,[18],3.65 µM
same,TGI,[18],10.8 µM
same,GI50,[53],3.94 µM
same,TGI,[53],7.48 µM
same,GI50,[54],4.37 µM
same,TGI,[54],7.99 µM
same,GI50,[19],4.79 µM
same,TGI,[19],15.6 µM
same,GI50,[20],4.02 µM
same,TGI,[20],9.12 µM
same,GI50,[21],4.59 µM
same,TGI,[21],13.7 µM
same,GI50,[22],3.54 µM
same,TGI,[22],9.04 µM
same,GI50,[23],4.56 µM
same,TGI,[23],13.5 µM
same,GI50,[24],3.12 µM
same,TGI,[24],9.94 µM
same,GI50,[26],5.29 µM
same,TGI,[26],15 µM
same,GI50,[27],4.4 µM
same,TGI,[27],9.43 µM
same,GI50,[28],4.54 µM
same,TGI,[28],8.92 µM
same,GI50,[55],4.9 µM
same,TGI,[55],11.9 µM
same,GI50,[56],4.23 µM
same,TGI,[56],9.27 µM
same,GI50,[57],4.81 µM
same,TGI,[57],11.4 µM
same,GI50,[29],3.58 µM
same,TGI,[29],7.25 µM
same,GI50,[30],4.76 µM
same,TGI,[30],11.2 µM
same,GI50,[31],3.4 µM
same,TGI,[31],7.74 µM
same,GI50,[32],3.86 µM
same,TGI,[32],7.68 µM
same,GI50,[33],4.65 µM
same,TGI,[33],9.82 µM
same,GI50,[34],3.78 µM
same,TGI,[34],9.83 µM
same,GI50,[35],4.68 µM
same,TGI,[35],11.1 µM
same,GI50,[58],4.73 µM
same,TGI,[58],14.9 µM
same,GI50,[59],2.74 µM
same,TGI,[59],4.11 µM
same,GI50,[36],3.74 µM
same,TGI,[36],7.78 µM
same,GI50,[37],3.98 µM
same,TGI,[37],8.48 µM
same,GI50,[38],3.84 µM
same,TGI,[38],7.74 µM
same,GI50,[39],3.36 µM
same,TGI,[39],8.42 µM
same,GI50,[40],4.06 µM
same,TGI,[40],7.63 µM
same,GI50,[41],3.88 µM
same,TGI,[41],13.5 µM
same,GI50,[42],3.91 µM
same,TGI,[42],8.07 µM
same,GI50,[43],3.96 µM
same,TGI,[43],8.13 µM
same,GI50,[44],4.03 µM
same,TGI,[44],8.27 µM
same,GI50,[45],4.51 µM
same,TGI,[45],8.96 µM
same,GI50,[46],4.01 µM
same,TGI,[46],7.68 µM
same,GI50,[47],4.07 µM
same,TGI,[47],8.47 µM
same,GI50,[48],3.71 µM
same,TGI,[48],7.2 µM
same,GI50,[49],4.86 µM
same,TGI,[49],10.8 µM
same,GI50,[50],4.1 µM
same,TGI,[50],8.51 µM

# From PubChem BioAssay (NCI)
